These results are taken from US10383871B2, “Azetidine derivatives” (Vernalis (R&D) Ltd, priority 2008, dated 2019).

This data set can be described thus: Plasma concentrations after oral administration in laboratory rats. It counts as in vivo, rat.
Consider `O=C(Nc1cccnn1)N1CC(Oc2ccc(-c3ccccc3F)cn2)C1` [Example 18, 3-[5-(2-Fluoro-phenyl)-pyridin-2-yloxy]-azetidine-1-carboxylic acid pyridazin-3-ylamide], for which the “plasma concentrations after oral administration” value is “high and prolonged plasma concentrations”.
Consider `O=C(Nc1cccnn1)N1CC(Oc2ccc(-c3ccccc3)cn2)C1` [Example 13, 3-(5-Phenyl-pyridin-2-yloxy)-azetidine-1-carboxylic acid pyridazin-3-ylamide], for which the “plasma concentrations after oral administration” value was “high and prolonged plasma concentrations”.
To `COCCOc1cccc(-c2ccc(OC3CN(C(=O)Nc4cccnn4)C3)nc2)c1` [Example 7, 3-{5-[3-(2-Methoxy-ethoxy)-phenyl]-pyridin-2-yloxy}-azetidine-1-carboxylic acid pyridazin-3-ylamide] belongs “high and prolonged plasma concentrations”; to `O=C(Nc1cccnc1)N1CC(Oc2ccc(-c3ccccc3)cc2)C1` [Example 4, 3-(Biphenyl-4-yloxy)-azetidine-1-carboxylic acid pyridin-3-ylamide], “high and prolonged plasma concentrations”.
For `COc1ccccc1-c1ccc(OC2CN(C(=O)Nc3cccnn3)C2)nc1` [Example 17, 3-[5-(2-Methoxy-phenyl)-pyridin-2-yloxy]-azetidine-1-carboxylic acid pyridazin-3-ylamine] the value was “high and prolonged plasma concentrations”.
